From PubChem BioAssay (NCI)
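Protocol summary: plate cells (96-well), add compound at 5 concentrations, incubate 48 h, interpolate endpoints linearly. Here, GI50 denotes the concentration required for 50% inhibition of growth. TGI: concentration producing complete growth inhibition.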

What was measured:
Test in all cases: growth of human tumour cells (NCI), 48 h
786-0 renal = system: 786-0 renal
A498 renal = system: A498 renal
A549 NSCLC = system: A549 NSCLC
ACHN renal = system: ACHN renal
BT-549 breast = system: BT-549 breast
CAKI-1 renal = system: CAKI-1 renal
CCRF-CEM leukemia = system: CCRF-CEM leukemia
COLO 205 colon = system: COLO 205 colon
DU-145 prostate = system: DU-145 prostate
EKVX NSCLC = system: EKVX NSCLC
HCC-2998 colon = system: HCC-2998 colon
HCT-116 colon = system: HCT-116 colon
HCT-15 colon = system: HCT-15 colon
HL-60(TB) leukemia = system: HL-60(TB) leukemia
HOP-62 NSCLC = system: HOP-62 NSCLC
HOP-92 NSCLC = system: HOP-92 NSCLC
HS 578T breast = system: HS 578T breast
HT29 colon = system: HT29 colon
IGROV1 ovarian = system: IGROV1 ovarian
K-562 leukemia = system: K-562 leukemia
KM12 colon = system: KM12 colon
LOX IMVI melanoma = system: LOX IMVI melanoma
M14 melanoma = system: M14 melanoma
MALME-3M melanoma = system: MALME-3M melanoma
MCF7 breast = system: MCF7 breast
MDA-MB-231 breast = system: MDA-MB-231 breast
MDA-MB-435 = system: MDA-MB-435
MOLT-4 leukemia = system: MOLT-4 leukemia
NCI-H226 lung = system: NCI-H226 lung
NCI-H23 lung = system: NCI-H23 lung
NCI-H460 lung = system: NCI-H460 lung
NCI-H522 lung = system: NCI-H522 lung
NCI/ADR-RES ovarian = system: NCI/ADR-RES ovarian
OVCAR-4 ovarian = system: OVCAR-4 ovarian
OVCAR-5 ovarian = system: OVCAR-5 ovarian
OVCAR-8 ovarian = system: OVCAR-8 ovarian
PC-3 prostate = system: PC-3 prostate
RPMI-8226 leukemia = system: RPMI-8226 leukemia
RXF 393 renal = system: RXF 393 renal
SF-268 CNS = system: SF-268 CNS
SF-295 CNS = system: SF-295 CNS
SF-539 CNS = system: SF-539 CNS
SK-MEL-2 melanoma = system: SK-MEL-2 melanoma
SK-MEL-28 melanoma = system: SK-MEL-28 melanoma
SK-MEL-5 melanoma = system: SK-MEL-5 melanoma
SK-OV-3 ovarian = system: SK-OV-3 ovarian
SN12C renal = system: SN12C renal
SNB-19 CNS = system: SNB-19 CNS
SNB-75 CNS = system: SNB-75 CNS
SR leukemia = system: SR leukemia
SW-620 colon = system: SW-620 colon
T-47D breast = system: T-47D breast
TK-10 renal = system: TK-10 renal
U251 CNS = system: U251 CNS
UACC-257 melanoma = system: UACC-257 melanoma
UACC-62 melanoma = system: UACC-62 melanoma
UO-31 renal = system: UO-31 renal

SMILES: CCN(CC)CCCC(C)NCC(=O)NC(c1ccc2c(c1)OCO2)c1cc(Cl)c2cccnc2c1O (centres undefined)
- GI50 (786-0 renal): 2.3 µM
- TGI (786-0 renal): 5.75 µM
- GI50 (A498 renal): 2.35 µM
- TGI (A498 renal): 6.69 µM
- GI50 (A549 NSCLC): 2.83 µM
- TGI (A549 NSCLC): 13.4 µM
- GI50 (ACHN renal): 2.79 µM
- TGI (ACHN renal): 10.1 µM
- GI50 (BT-549 breast): 4.78 µM
- TGI (BT-549 breast): 17.1 µM
- GI50 (CAKI-1 renal): 1.77 µM
- TGI (CAKI-1 renal): 4.41 µM
- GI50 (CCRF-CEM leukemia): 0.909 µM
- TGI (CCRF-CEM leukemia): 12.2 µM
- GI50 (COLO 205 colon): 2.36 µM
- TGI (COLO 205 colon): 8.42 µM
- GI50 (DU-145 prostate): 2.63 µM
- TGI (DU-145 prostate): 15.7 µM
- GI50 (EKVX NSCLC): 1.65 µM
- TGI (EKVX NSCLC): 11 µM
- GI50 (HCC-2998 colon): 1.73 µM
- TGI (HCC-2998 colon): 4.13 µM
- GI50 (HCT-116 colon): 1.41 µM
- TGI (HCT-116 colon): 11.2 µM
- GI50 (HCT-15 colon): 2.44 µM
- TGI (HCT-15 colon): 11.9 µM
- GI50 (HL-60(TB) leukemia): 1.29 µM
- TGI (HL-60(TB) leukemia): 4.41 µM
- GI50 (HOP-62 NSCLC): 1.56 µM
- TGI (HOP-62 NSCLC): 6.88 µM
- GI50 (HOP-92 NSCLC): 1.62 µM
- TGI (HOP-92 NSCLC): 8.17 µM
- GI50 (HS 578T breast): 4.37 µM
- TGI (HS 578T breast): 22.6 µM
- GI50 (HT29 colon): 2.41 µM
- TGI (HT29 colon): 10.4 µM
- GI50 (IGROV1 ovarian): 2.53 µM
- TGI (IGROV1 ovarian): 10.8 µM
- GI50 (K-562 leukemia): 0.895 µM
- TGI (K-562 leukemia): 9.33 µM
- GI50 (KM12 colon): 2.41 µM
- TGI (KM12 colon): 9.78 µM
- GI50 (LOX IMVI melanoma): 1.22 µM
- TGI (LOX IMVI melanoma): 3.13 µM
- GI50 (M14 melanoma): 1.42 µM
- TGI (M14 melanoma): 3.27 µM
- GI50 (MALME-3M melanoma): 1.68 µM
- TGI (MALME-3M melanoma): 3.29 µM
- GI50 (MCF7 breast): 1.59 µM
- TGI (MCF7 breast): 10.6 µM
- GI50 (MDA-MB-231 breast): 1.35 µM
- TGI (MDA-MB-231 breast): 11.9 µM
- GI50 (MDA-MB-435): 1.81 µM
- TGI (MDA-MB-435): 3.87 µM
- GI50 (MOLT-4 leukemia): 0.626 µM
- TGI (MOLT-4 leukemia): 11.2 µM
- GI50 (NCI-H226 lung): 2.12 µM
- TGI (NCI-H226 lung): 6.71 µM
- GI50 (NCI-H23 lung): 2.99 µM
- TGI (NCI-H23 lung): 11.2 µM
- GI50 (NCI-H460 lung): 1.48 µM
- TGI (NCI-H460 lung): 6.45 µM
- GI50 (NCI-H522 lung): 2.36 µM
- TGI (NCI-H522 lung): 6.97 µM
- GI50 (NCI/ADR-RES ovarian): 3.31 µM
- TGI (NCI/ADR-RES ovarian): 15.5 µM
- GI50 (OVCAR-4 ovarian): 1.39 µM
- TGI (OVCAR-4 ovarian): 14.7 µM
- GI50 (OVCAR-5 ovarian): 2.73 µM
- TGI (OVCAR-5 ovarian): 15.5 µM
- GI50 (OVCAR-8 ovarian): 2.56 µM
- TGI (OVCAR-8 ovarian): 13.1 µM
- GI50 (PC-3 prostate): 2.03 µM
- TGI (PC-3 prostate): 12 µM
- GI50 (RPMI-8226 leukemia): 2.36 µM
- TGI (RPMI-8226 leukemia): 7.77 µM
- GI50 (RXF 393 renal): 2.33 µM
- TGI (RXF 393 renal): 10.3 µM
- GI50 (SF-268 CNS): 2.21 µM
- TGI (SF-268 CNS): 10.6 µM
- GI50 (SF-295 CNS): 1.56 µM
- TGI (SF-295 CNS): 3.41 µM
- GI50 (SF-539 CNS): 1.85 µM
- TGI (SF-539 CNS): 4.05 µM
- GI50 (SK-MEL-2 melanoma): 2.37 µM
- TGI (SK-MEL-2 melanoma): 6.33 µM
- GI50 (SK-MEL-28 melanoma): 1.47 µM
- TGI (SK-MEL-28 melanoma): 3.08 µM
- GI50 (SK-MEL-5 melanoma): 1.67 µM
- TGI (SK-MEL-5 melanoma): 3.11 µM
- GI50 (SK-OV-3 ovarian): 2.93 µM
- TGI (SK-OV-3 ovarian): 8.45 µM
- GI50 (SN12C renal): 3.15 µM
- TGI (SN12C renal): 13.7 µM
- GI50 (SNB-19 CNS): 3.23 µM
- TGI (SNB-19 CNS): 15.2 µM
- GI50 (SNB-75 CNS): 2.18 µM
- TGI (SNB-75 CNS): 8.73 µM
- GI50 (SR leukemia): 0.897 µM
- TGI (SR leukemia): 5.61 µM
- GI50 (SW-620 colon): 2.32 µM
- TGI (SW-620 colon): 11.9 µM
- GI50 (T-47D breast): 2.89 µM
- TGI (T-47D breast): 9.19 µM
- GI50 (TK-10 renal): 3.36 µM
- TGI (TK-10 renal): 15.1 µM
- GI50 (U251 CNS): 2.1 µM
- TGI (U251 CNS): 13 µM
- GI50 (UACC-257 melanoma): 1.92 µM
- TGI (UACC-257 melanoma): 4.18 µM
- GI50 (UACC-62 melanoma): 1.83 µM
- TGI (UACC-62 melanoma): 3.6 µM
- GI50 (UO-31 renal): 2.02 µM
- TGI (UO-31 renal): 7.16 µM
